Assays:
[1] = test system: L. infantum promastigotes; assay: In vitro iRFP-L. infantum promastigotes viability assay; format: cell-based; conditions: Leishmania infantum; 96 h exposure, EC50 ± SD
Protocol: (§1) The effect of the new quinolinylphosphonate derivatives 7 synthesized was assessed on both free-living promastigotes and intramacrophage amastigotes of L. infantum as it is described in experimental protocols. Primary cultures of intramacrophage amastigotes were obtained from splenic explants from 6-weeks infected Balb/c mice with L. infantum-iRFP promastigotes. The infrared fluorescence emitted by both stage forms of the parasite was used as viability criterium, using 0.5% DMSO as negative control (100% viability) and […] AMB as a positive control (0% viability).
A genetically modified strain of L infantum BCN 150, expressing iRFP protein from Rhodopseudomonas palustris bacteriophytochrome (iRFP-L. infantum), was used to obtain the EC50 values of the different compounds against promastigotes, through the detection of the near-infrared radiation emitted by living parasites exposed to tested molecules. Thus, the viability of promastigotes was calculated after recording their fluorescence at 708 nm in an Odyssey (Li-Cor, NE, USA) infrared imaging.
iRFP-L. infantum promastigotes were cultured using M199 medium (Gibco, Thermo Fisher Scientific, MA, USA), supplemented with 25 mM 4-(2-hydroxyethyl)-1-piperazineethanesulfonic acid (HEPES) pH 6.9, […] hemin, 10 mM glutamine, 0.1 mM adenosine, 0.01 mM folic acid, 1× RPMI 1640 vitamin mix (Sigma, Darmstadt, Germany), 10% (v/v) heat-inactivated foetal bovine serum (Gibco, Thermo Fisher Scientific, MA, USA), 50 U/mL penicillin and 50 µg/mL streptomycin. The assay was carried out, seeding 1 × 10^6 cells/mL of iRFP-L. infantum promastigotes into 96-well optical bottom black plates (Thermo Scientific, MA, USA) along with different concentrations of compound to each well. The final concentration of DMSO, the solvent used to prepare the stock solutions of compounds, was never higher than 0.1%. All of the compounds’ concentrations and controls were assayed by triplicate.

[2] = CCK-8 cytotoxicity assay, MRC-5 non-cancerous cells; format: cell-based; conditions: human, MRC-5 non-malignant lung fibroblasts
Protocol: (§2) The cytotoxicity of the newly synthesized quinolinylphosphonates 7 was evaluated in vitro by testing their antiproliferative activities against several human cancer cell lines: A549 (human lung adenocarcinoma cells), SKOV3 (human ovarian carcinoma), and HEK293 (human embryonic kidney). In order to analyze the selective cytotoxicity facing exclusively cancerous cell lines, cytotoxicity against non-cancerous cell lines (MRC-5, lung fibroblast cells) was also evaluated. Cell counting kit (CCK-8) assay was employed to assess growth inhibition and, cell proliferation inhibitory activities of compounds that are listed in Table 1 as IC50 values. […] According to the data presented in Table 1, in general, all these phosphorated derivatives present higher selective cytotoxicity in the A549 cell line than in the other two cell lines, SKOV3 and HEK293, although slight differences are observed compared to human ovarian carcinoma (SKOV3).
(§3) Cells were cultured according to the supplier’s instructions, A549 (ATCC® CCL-185), SKOV3 (ATCC® HTB-77), HEK293 (CLS GmbH), MRC-5 (ATCC® CCL-171™). Cells were seeded in 96-well plates at a density of 2–2.5 × 10^3 cells per well and incubated overnight in 0.1 mL of media supplied with 10% Fetal Bovine Serum (Lonza, Basel, Switzerland) in a 5% CO2 incubator at 37 °C. On day 2, drugs (concentration between 0.5–50 μM) were added and samples were incubated for 48 h. After treatment, 10 μL of cell counting kit-8 was added to each well for an additional 2 h incubation at 37 °C. The absorbance of each well was determined by an Automatic Elisa Reader System at 450 nm wavelength. CPT was purchased from Sigma-Aldrich and used as a positive control.

[3] = test system: SKOV3 (human ovarian carcinoma); assay: CCK-8 cytotoxicity assay, SKOV3; format: cell-based; conditions: SK-OV-3, 48 h, read-out: Cytotoxicity IC50 Ovarian SKOV3
Protocol: as §2, §3

[4] = test system: A549 (human lung adenocarcinoma cells); assay: CCK-8 cytotoxicity assay, A549; format: cell-based; conditions: A549, 48 h, read-out: Cytotoxicity IC50 Lung A549
Protocol: as §2, §3

[5] = test system: murine splenocytes; assay: Splenocyte viability, Alamar Blue; format: cell-based, BALB/c mice; conditions: for IC50: Mus musculus, Splenocyte, read-out: IC50 Splenocites; for SI (selectivity index): ratio IC50 splenic cells / EC50 amastigotes
Protocol: The viability of splenocytes cells against the different compounds was measured using the Alamar Blue staining method (Invitrogen, MA, USA). For this purpose, these cells were obtained following the protocol indicated in the previous section, from uninfected mice. Plots of absorbance of viable cells (obtained following manufacturer’s recommendations of Alamar Blue) vs compounds concentration were used to calculate CC50 values. Plots were fitted by nonlinear analysis using the Sigma Plot 10.1 statistical package. The assays were performed by triplicate.
The selectivity index for each compound was calculated as the ratio between the IC50 value for splenic cells and the EC50 value for amastigotes.

[6] = test system: L. infantum amastigotes; assay: Ex vivo murine splenic explant culture, intramacrophage amastigotes; format: cell-based; conditions: Leishmania infantum, Hec50; intramacrophage amastigotes in splenic explants, 96 h, EC50 ± SD
Protocol: as §1
The EC50 values of compounds against the amastigote forms were calculated using a cell suspension obtained from spleens extracted from BALB/c mice. Mice had been infected previously with iRFP L. infantum metacyclic promastigotes and sacrificed five weeks after infection. To obtain the cell suspension containing amastigotes, spleens washed with cold phosphate-buffered saline (PBS), were cut into pieces, and incubated with 5 mL of 2 mg/mL collagenase D (Sigma, Darmstadt, Germany), which was prepared in buffer (10 mM HEPES, pH 7.4, 150 mM NaCl, 5 mM KCl, 1 mM MgCl2 and 1.8 mM CaCl2) for 20 min. Subsequently, these cells were passed through a 100 µm cell strainer, collected by centrifugation (500× g for 7 min at 4 °C), washed twice with PBS, and suspended in RPMI medium (Gibco, Thermo Fisher Scientific, MA, USA) supplemented with 10 mM HEPES, 1 mM sodium pyruvate, 1xRPMI 1640 vitamin mix, 10% (v/v) FBS, 50 U/mL penicillin and 50 µg/mL streptomycin, at 37 °C under a 5% CO2 atmosphere.
To assay the effect of the different compounds against amastigotes, which infect splenic cells, these cells were seeded to confluence into 384-well black optical bottom plates (Thermo Scientific, Waltham, MA, USA) in addition to different concentrations of compound to each well. The viability of amastigotes was calculated by recording their fluorescence at 708 nm in an Odyssey (Li-Cor, NE, USA) infrared imaging system, after 96 h of exposure. Plots of the infrared fluorescence against the concentrations of tested compounds were fitted by nonlinear analysis using the Sigma Plot 10.1 statistical package and used to calculate EC50 values. As well as promastigotes viability, the assays were performed in triplicate.

[7] = test system: HEK293 (human embryonic kidney); assay: CCK-8 cytotoxicity assay, HEK293; format: cell-based; conditions: HEK293, 48 h, CCK-8, 50% growth inhibition
Protocol: as §2, §3

Structure (SMILES)	EC50 [1] [µM]	IC50 at 48 h [2] [µM]	IC50 [3] [µM]	IC50 [4] [µM]	IC50 [5] [µM]	SI (selectivity index) [5]	EC50 [6] [µM]	IC50 [7] [µM]	melting point [°C]
CCOP(=O)(OCC)c1ccc2nc(-c3ccc(F)cc3)cc(-c3ccccc3)c2c1 [7r, Diethyl (2-(4-fluorophenyl)-4-phenylquinolin-6-yl)phosphonate]	15.2 ± 1.14	> 50	3.03 ± 1.24	2.8 ± 1.24	28.1 ± 1.23	1	29.2 ± 14	36.9 ± 8.06	137 to 139
CC(C)OP(=O)(OC(C)C)c1cccc2c(-c3ccc(F)cc3)cc(-c3ccc(F)cc3)nc12 [7n, Diisopropyl (2,4-bis(4-fluorophenyl)quinolin-8-yl)phosphonate]	4.86 ± 0.5	> 50	19.8 ± 3.83	10.6 ± 1.73	15.3 ± 1.72	2.8	5.52 ± 1.11	15 ± 0.99	113 to 115
CCOP(=O)(OCC)c1ccc2nc(-c3ccc(F)cc3)cc(-c3ccc(F)cc3)c2c1 [7t, Diethyl (2,4-bis(4-fluorophenyl)quinolin-6-yl)phosphonate]	16.7 ± 0.72	> 50	> 50	2.85 ± 1.26	45 ± 10.2	1.4	31.5 ± 2.71	> 50	161 to 164
CC(C)OP(=O)(OC(C)C)c1cccc2c(-c3ccccc3)cc(-c3ccc(F)c(F)c3)nc12 [7m, Diisopropyl (2-(3,4-difluorophenyl)-4-phenylquinolin-8-yl)phosphonate]	11.2 ± 0.74	> 50	12.1 ± 1.7	18.4 ± 1.4	19.8 ± 3.76	1.9	10.2 ± 1.34	> 50	127 to 129
CCOP(=O)(OCC)c1cccc2c(-c3ccccc3)cc(-c3ccc(F)cc3)nc12 [7b, Diethyl (4-Phenyl-2-(fluorophenyl)quinolin-8-il) phosphonate]	7.63 ± 0.76	> 50	5.29 ± 1.42	2.16 ± 0.29	12.2 ± 1.77	0.8	14.6 ± 1.3	43 ± 4.65	116 to 118
CCOP(=O)(OCC)c1cccc2c(-c3ccc(C)cc3)cc(-c3ccc(F)c(F)c3)nc12 [7k, Diethyl (2-(3,4-difluorophenyl)-4-(p-tolyl)quinolin-8-yl)phosphonate]	2.59 ± 0.48	> 50	10.6 ± 1.13	2.72 ± 0.37	24.1 ± 7.79	0.9	26.2 ± 3.65	22.3 ± 1.36	133 to 135
Cc1ccc(-c2cc(-c3ccc(F)cc3)nc3c(P(=O)(OC(C)C)OC(C)C)cccc23)cc1 [7p, Diisopropyl (2-(4-fluorophenyl)-4-(p-tolyl)quinolin-8-yl)phosphonate]	5.01 ± 0.35	> 50	12.1 ± 1.68	6.84 ± 1.74	21.2 ± 3.5	0.9	24.3 ± 2.53	14.4 ± 1.69	121 to 123
CCOP(=O)(OCC)c1cccc2c(-c3ccc(F)cc3)cc(-c3ccccc3)nc12 [7g]	16.1 ± 1.94	> 50	9.29 ± 1.79	2.27 ± 0.32	33.9 ± 7.98	2.8	11.9 ± 5.17	24.4 ± 3.46	172 to 174
CC(C)OP(=O)(OC(C)C)c1cccc2c(-c3ccc(F)cc3)cc(-c3ccc(F)c(F)c3)nc12 [7o, Diisopropyl (2-(3,4-difluorophenyl)-4-(4-fluorophenyl)quinolin-8-yl)phosphonate]	19.3 ± 1.79	> 50	22.1 ± 4.47	6.79 ± 3.87	18.6 ± 1.1	0.9	19.7 ± 1.73	21 ± 4.05	144 to 146
CC(C)OP(=O)(OC(C)C)c1cccc2c(-c3ccccc3)cc(-c3ccc(F)cc3)nc12 [7l, Diisopropyl (2-(4-fluorophenyl)-4-phenylquinolin-8-yl)phosphonate]	9.57 ± 0.4	> 50	18.7 ± 1.98	5.01 ± 2.7	22.1 ± 4.7	1.1	19.5 ± 2.23	10.1 ± 1.26	107 to 109
CCOP(=O)(OCC)c1ccc2nc(-c3ccc(F)c(F)c3)cc(-c3ccc(F)cc3)c2c1 [7u, Diethyl (2-(3,4-difluorophenyl)-4-(4-fluorophenyl)quinolin-6-yl)phosphonate]	7.07 ± 0.61	> 50	> 50	4.33 ± 1.11	> 100	>3.8	26.4 ± 2.2	> 50	130 to 132
CCOP(=O)(OCC)c1ccc2nc(-c3ccc(F)c(F)c3)cc(-c3ccccc3)c2c1 [7s, Diethyl (2-(3,4-difluorophenyl)-4-phenylquinolin-6-yl)phosphonate]	14.7 ± 1.78	> 50	> 50	6.19 ± 0.67	26.2 ± 0.51	1.8	14.2 ± 2.83	19.2 ± 1.13	134 to 136
CCOP(=O)(OCC)c1cccc2c(-c3ccc(F)cc3)cc(-c3ccc(F)cc3)nc12 [7h, Diethyl (2,4-bis(4-fluorophenyl)quinolin-8-yl)phosphonate]	8.43 ± 0.92	> 50	9.79 ± 0.59	3.07 ± 0.22	20.3 ± 7.49	0.8	24.2 ± 2.37	15.7 ± 1.74	121 to 123

Reference: article PMC8399847, “Hybrid Quinolinyl Phosphonates as Heterocyclic Carboxylate Isosteres: Synthesis and Biological Evaluation against Topoisomerase 1B (TOP1B)” (Pharmaceuticals, 2021)
